Results reported in PMC3905599 (Chembiochem : a European journal of chemical biology, 2013).

How the values were obtained:
P-glycoprotein = P-glycoprotein (Homo sapiens, UniProt P08183); type: binding; conditions: for inhibition at 20 μM / inhibition at 10 μM: human, pH 7.5
human P-gp = human P-gp (Homo sapiens, UniProt P08183); assay: Calcein-AM efflux; type: cell-based
P-gp = conditions: cited from earlier work
[1] = ongoing Phase III clinical trials; cited from earlier work

Sequence of P-glycoprotein (P08183 whole entry): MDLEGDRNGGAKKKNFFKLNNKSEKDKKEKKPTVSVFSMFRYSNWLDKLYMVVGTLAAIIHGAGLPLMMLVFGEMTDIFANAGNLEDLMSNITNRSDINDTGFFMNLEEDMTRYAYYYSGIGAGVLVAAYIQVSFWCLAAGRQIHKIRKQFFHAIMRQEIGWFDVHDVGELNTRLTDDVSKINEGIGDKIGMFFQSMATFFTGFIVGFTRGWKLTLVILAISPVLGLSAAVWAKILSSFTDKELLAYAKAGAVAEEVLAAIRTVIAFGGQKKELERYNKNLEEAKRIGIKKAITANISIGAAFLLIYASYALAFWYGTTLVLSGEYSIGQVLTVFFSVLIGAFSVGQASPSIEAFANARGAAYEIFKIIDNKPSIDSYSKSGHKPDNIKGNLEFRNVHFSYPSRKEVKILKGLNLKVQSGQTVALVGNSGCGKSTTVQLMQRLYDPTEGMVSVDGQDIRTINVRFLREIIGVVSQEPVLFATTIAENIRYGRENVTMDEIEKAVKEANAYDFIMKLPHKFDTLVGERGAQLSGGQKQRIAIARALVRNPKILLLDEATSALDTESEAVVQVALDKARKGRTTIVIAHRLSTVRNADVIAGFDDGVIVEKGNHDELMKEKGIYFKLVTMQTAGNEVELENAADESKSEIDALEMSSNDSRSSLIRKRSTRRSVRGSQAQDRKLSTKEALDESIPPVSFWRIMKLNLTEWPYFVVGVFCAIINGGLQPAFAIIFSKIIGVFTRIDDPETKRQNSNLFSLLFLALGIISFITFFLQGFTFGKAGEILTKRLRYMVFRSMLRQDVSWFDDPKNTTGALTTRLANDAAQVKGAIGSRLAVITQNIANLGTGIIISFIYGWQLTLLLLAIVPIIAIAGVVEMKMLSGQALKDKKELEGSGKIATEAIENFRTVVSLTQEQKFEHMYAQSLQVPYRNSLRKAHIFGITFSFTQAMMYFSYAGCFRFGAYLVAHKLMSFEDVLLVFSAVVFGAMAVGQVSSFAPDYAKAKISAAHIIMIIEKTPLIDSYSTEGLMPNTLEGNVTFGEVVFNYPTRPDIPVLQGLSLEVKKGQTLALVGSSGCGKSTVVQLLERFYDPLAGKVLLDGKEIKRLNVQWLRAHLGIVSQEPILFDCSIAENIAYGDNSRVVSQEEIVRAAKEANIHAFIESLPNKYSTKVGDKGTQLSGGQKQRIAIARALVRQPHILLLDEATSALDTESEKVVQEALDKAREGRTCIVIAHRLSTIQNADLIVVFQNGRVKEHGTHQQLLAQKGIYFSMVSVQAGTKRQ
Sequence of human P-gp (P08183 whole entry): as above

| Structure (SMILES) | inhibition at 20 μM (P-glycoprotein) | inhibition at 10 μM (P-glycoprotein) | further results |
| --- | --- | --- | --- |
| CCOC(=O)c1csc([C@@H](NC(=O)OC(C)(C)C)C(C)C)n1 [Compound 5, (S)-2-(1-tert-Butoxycarbonylamino-2-methylpropyl)thiazole-4-carboxylic acid ethyl ester] | 20% | – | – |
| CC(C)[C@H](NC(=O)OC(C)(C)C)c1nc(C(=O)O)cs1 [Compound 6, (S)-2-(1-tert-Butoxycarbonylamino-2-methylpropyl)thiazole-4-carboxylic acid] | < 10% | – | – |
| CCOC(=O)c1csc([C@@H](N)C(C)C)n1 [Compound 7, (S)-2-(1-Amino-2-methylpropyl)thiazole-4-carboxylic acid ethyl ester] | < 10% | – | – |
| CC(C)[C@H](N)c1nc(C(=O)O)cs1 [Compound 8, (S)-2-(1-Amino-2-methylpropyl)thiazole-4-carboxylic acid] | < 10% | – | – |
| CCOC(=O)c1csc([C@@H](NC(=O)c2csc([C@@H](NC(=O)OC(C)(C)C)C(C)C)n2)C(C)C)n1 [Compound 9, (S)-2-(1-{[2-(1-tert-Butoxycarbonylamino-2-methylpropyl)thiazole-4-carbonyl]amino}-(S)-2-methylpropyl)thiazole-4-carboxylic acid ethyl ester] | 87% | – | IC50 (human P-gp): 20 µM |
| CC(C)[C@H](NC(=O)OC(C)(C)C)c1nc(C(=O)N[C@H](c2nc(C(=O)O)cs2)C(C)C)cs1 [Compound 10, (S)-2-(1-{[2-(1-tert-Butoxycarbonylamino-2-methylpropyl)thiazole-4-carbonyl]amino}-(S)-2-methylpropyl)thiazole-4-carboxylic acid] | < 10% | – | – |
| CCOC(=O)c1csc([C@@H](NC(=O)c2csc([C@@H](N)C(C)C)n2)C(C)C)n1 [Compound 11, (S)-2-(1-{[2-(1-Amino-2-methylpropyl)thiazole-4-carbonyl]amino}-(S)-2-methylpropyl)thiazole-4-carboxylic acid ethyl ester] | 87% | – | – |
| CC(C)[C@H](N)c1nc(C(=O)N[C@H](c2nc(C(=O)O)cs2)C(C)C)cs1 [Compound 12, (S)-2-(1-{[2-(1-Amino-2-methylpropyl)thiazole-4-carbonyl]amino}-(S)-2-methylpropyl)thiazole-4-carboxylic acid] | 23% | – | – |
| CCOC(=O)c1csc([C@@H](NC(=O)c2csc([C@@H](NC(=O)c3csc([C@@H](NC(=O)OC(C)(C)C)C(C)C)n3)C(C)C)n2)C(C)C)n1 [Compound 13, (S)-2-(1-{[2-(1-{[2-(1-tert-Butoxycarbonylamino-2-methylpropyl)thiazole-4-carbonyl]amino}-(S)-2-methylpropyl)thiazole-4-carbonyl]amino}-(S)-2-methylpropyl) thiazole-4-carboxylic acid ethyl ester] | – | 91% | – |
| CC(C)[C@H](NC(=O)OC(C)(C)C)c1nc(C(=O)N[C@H](c2nc(C(=O)N[C@H](c3nc(C(=O)O)cs3)C(C)C)cs2)C(C)C)cs1 [Compound 14, (S)-2-(1-{[2-(1-{[2-(1-tert-Butoxycarbonylamino-2-methylpropyl)thiazole-4-carbonyl]amino}-(S)-2-methylpropyl)thiazole-4-carbonyl]amino}-(S)-2-methylpropyl)thiazole-4-carboxylic acid] | – | 60% | – |
| CCOC(=O)c1csc([C@@H](NC(=O)c2csc([C@@H](NC(=O)c3csc([C@@H](N)C(C)C)n3)C(C)C)n2)C(C)C)n1 [Compound 15, (S)-2-(1-{[2-(1-{[2-(1-Amino-2-methylpropyl)thiazole-4-carbonyl]amino}-(S)-2-methylpropyl)thiazole-4-carbonyl]amino}-(S)-2-methylpropyl)thiazole-4-carboxylic acid ethyl ester] | – | 91% | – |
| CCOC(=O)c1csc([C@@H](NC(=O)c2csc([C@@H](NC(=O)c3csc([C@@H](NC(=O)c4csc([C@@H](NC(=O)OC(C)(C)C)C(C)C)n4)C(C)C)n3)C(C)C)n2)C(C)C)n1 [Compound 18, (S)-2-(1-{[2-(1-{[2-(1-{[2-(1-tert-Butoxycarbonylamino-2-methylpropyl)thiazole-4-carbonyl]amino}-(S)-2-methylpropyl)thiazole-4-carbonyl]amino}-(S)-2-methylpropyl)thiazole-4-carbonyl]amino}-(S)-2-methylpropyl)thiazole-4-carboxylic acid ethyl ester] | – | 99% | Decrease of cell based inhibitory activity as compared to homolog 13 (human P-gp; 10 μM, transport assays): 1.6 fold |
| CC(C)[C@@H]1NC(=O)c2csc(n2)[C@H](C(C)C)NC(=O)c2csc(n2)[C@H](C(C)C)NC(=O)c2csc(n2)[C@H](C(C)C)NC(=O)c2csc1n2 [Compound 20, Cyclic Tetramer] | – | – | [125I]-IAAP % Inhibition (P-glycoprotein; tested conc. 10 μM, 4-6 nM [125I]-IAAP, High-Five insect cell membranes): 95% |
| COc1ccc(CNC(=O)c2csc([C@@H](NC(=O)c3csc([C@@H](NC(=O)OC(C)(C)C)C(C)C)n3)C(C)C)n2)c(OC)c1 [Compound 23, [1-(4-{1-[4-(2,4-Dimethoxybenzylcarbamoyl)thiazol-2-yl]-(S)-2-methylpropylcarbamoyl}thiazol-2-yl)-(S)-2-methylpropyl]carbamic acid tert-butyl ester] | – | 95% | – |
| CC(C)[C@@H]1NC(=O)c2c[se]c(n2)[C@H](C(C)C)NC(=O)c2c[se]c(n2)[C@H](C(C)C)NC(=O)c2c[se]c1n2 [QZ59Se-SSS] | – | – | Potency relative to corresponding QZ59Se-RRR isomer (P-gp): four-fold potent |
| C/C=C/C[C@@H](C)C(=O)[C@H]1C(=O)N[C@@H](C(C)C)C(=O)N(C)CC(=O)N(C)[C@@H](CC(C)C)C(=O)N[C@@H](C(C)C)C(=O)N(C)[C@@H](CC(C)C)C(=O)N[C@@H](C)C(=O)N[C@H](C)C(=O)N(C)[C@@H](CC(C)C)C(=O)N(C)[C@@H](CC(C)C)C(=O)N(C)[C@@H](C(C)C)C(=O)N1C [valspodar] | – | – | Oral bioavailability [1]: very restricted oral bioavailability |
